The results in this text go back to paper PMC13224050, “Synthesis and characterization of a novel phosphatidylinositol 5-phosphate (PI(5)P) photoaffinity probe” (RSC Chemical Biology, 2026).

For assay [1], the target named is T1, hUHRF1 (Homo sapiens, UniProt Q96T88).
T1 construct: gene UHRF1; purified recombinant, bacterially expressed; domains UBL, TTD, PHD, SRA, RING
T1 sequence (Q96T88 1-793): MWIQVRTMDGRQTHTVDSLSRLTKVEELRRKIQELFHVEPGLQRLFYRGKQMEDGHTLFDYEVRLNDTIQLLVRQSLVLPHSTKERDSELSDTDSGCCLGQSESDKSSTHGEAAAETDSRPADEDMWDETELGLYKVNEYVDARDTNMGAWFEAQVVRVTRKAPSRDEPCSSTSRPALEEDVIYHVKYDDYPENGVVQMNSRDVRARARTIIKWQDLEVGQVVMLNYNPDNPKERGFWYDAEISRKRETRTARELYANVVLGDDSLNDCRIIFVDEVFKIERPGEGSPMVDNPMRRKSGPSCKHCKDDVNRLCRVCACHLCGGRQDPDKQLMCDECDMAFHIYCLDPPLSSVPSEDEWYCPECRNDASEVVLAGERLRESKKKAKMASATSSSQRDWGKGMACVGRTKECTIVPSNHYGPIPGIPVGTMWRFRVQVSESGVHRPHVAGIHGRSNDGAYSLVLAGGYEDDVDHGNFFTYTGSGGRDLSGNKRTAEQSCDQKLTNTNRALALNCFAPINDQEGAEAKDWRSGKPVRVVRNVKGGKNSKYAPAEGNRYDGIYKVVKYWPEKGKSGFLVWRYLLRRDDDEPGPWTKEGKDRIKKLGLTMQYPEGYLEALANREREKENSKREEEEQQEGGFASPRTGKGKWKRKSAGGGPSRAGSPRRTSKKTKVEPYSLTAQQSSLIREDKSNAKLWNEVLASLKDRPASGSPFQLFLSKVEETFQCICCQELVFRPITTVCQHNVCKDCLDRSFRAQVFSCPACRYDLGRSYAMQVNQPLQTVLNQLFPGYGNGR
As to the kind of experiment: microscale thermophoresis. The class given is binding. (MST reads how a fluorescent partner responds to local heating, with and without ligand.)

For assay [2], the target named is T2, hTAF3 (Homo sapiens, UniProt Q5VWG9).
T2 construct: gene TAF3; purified recombinant, bacterially expressed; abstract prints TAF1 instead
T2 sequence (Q5VWG9 1-929): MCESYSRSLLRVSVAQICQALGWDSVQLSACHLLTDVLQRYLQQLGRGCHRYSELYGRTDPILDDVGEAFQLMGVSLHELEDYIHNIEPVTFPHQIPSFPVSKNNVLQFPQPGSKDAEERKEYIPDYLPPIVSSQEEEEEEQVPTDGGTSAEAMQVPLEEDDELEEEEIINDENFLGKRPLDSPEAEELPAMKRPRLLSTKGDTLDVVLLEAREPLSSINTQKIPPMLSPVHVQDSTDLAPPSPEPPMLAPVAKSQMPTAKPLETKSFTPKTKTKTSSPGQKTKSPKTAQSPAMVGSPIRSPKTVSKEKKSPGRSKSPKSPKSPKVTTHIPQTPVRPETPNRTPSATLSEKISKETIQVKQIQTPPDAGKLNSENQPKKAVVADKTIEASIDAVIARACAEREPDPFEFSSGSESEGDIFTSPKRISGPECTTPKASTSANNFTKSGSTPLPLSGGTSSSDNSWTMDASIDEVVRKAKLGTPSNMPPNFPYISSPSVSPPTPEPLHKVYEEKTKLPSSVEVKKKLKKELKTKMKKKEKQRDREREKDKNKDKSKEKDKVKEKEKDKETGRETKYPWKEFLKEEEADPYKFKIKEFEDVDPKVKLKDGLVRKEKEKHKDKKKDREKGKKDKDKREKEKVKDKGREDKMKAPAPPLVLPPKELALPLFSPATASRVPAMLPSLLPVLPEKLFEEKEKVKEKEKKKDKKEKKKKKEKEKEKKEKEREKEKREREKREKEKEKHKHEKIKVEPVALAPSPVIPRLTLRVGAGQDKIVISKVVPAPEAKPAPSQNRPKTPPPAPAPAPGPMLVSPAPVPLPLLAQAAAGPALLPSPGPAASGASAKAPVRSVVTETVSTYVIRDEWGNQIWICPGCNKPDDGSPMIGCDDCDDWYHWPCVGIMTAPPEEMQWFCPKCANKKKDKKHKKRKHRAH
Description: photo-crosslinking with TAMRA click SDS-PAGE. The format is binding. The note with it: covalent; 365 nm 30 min.

In assay [1], `CCCCCCCCCCCCCCCC(=O)OC[C@H](COP(=O)(O)O[C@H]1[C@H](O)[C@@H](OP(=O)(O)O)[C@H](O)[C@@H](O)[C@H]1O)OC(=O)CCCCCCCCCCCCCCC` [compound 1, di-C16 : 0 PI(5)P] displayed a dissociation constant Kd of around 8.6 µM. Turning to `C#CCCCCCCCCCCC1(CCC(=O)O[C@H](COC(=O)CCCCCCCCCCCCCCC)COP(=O)(O)O[C@H]2[C@H](O)[C@@H](OP(=O)(O)O)[C@H](O)[C@@H](O)[C@H]2O)N=N1` [compound 9, PI(5)P diazirine probe], in assay [2], the “photo-crosslinking with TAMRA click SDS-PAGE” value was “confirming that the diazirine probe bound to bacterially expressed recombinant hUHRF1 and hTAF3”.

For orientation: Kd means the equilibrium constant for the complex coming apart. High values mean lower affinity, low ones higher affinity.
